We go through 21 compounds from ChEMBL document CHEMBL3792301, “Isatin derivatives with activity against apoptosis-resistant cancer cells” (Bioorg Med Chem Lett, 2016).

The structures appear in SMILES notation. Bounds are passed on as bounds.

One assay has as its system LoVo. The assay is described as follows: Antiproliferative activity against human LoVo cells after 72 hrs by MTT assay. In kind it is functional, cell-based. (Tetrazolium dyes change colour on reduction, which living cells bring about.)
Assay [1] can be described thus: Antiproliferative activity against apoptosis resistant human U373 cells after 72 hrs by MTT assay. The assay is classed as functional, cell-based, U-373MG ATCC. The note with it: U373 MG.
In a further assay the test system is A549. As to the kind of experiment: Antiproliferative activity against apoptosis resistant human A549 cells after 72 hrs by MTT assay. The assay is classed as functional, cell-based. The conditions noted are these: A549, 72 h.
A short description of assay [2]: Antiproliferative activity against apoptosis resistant human OE21 cells after 72 hrs by MTT assay. In kind it is functional, cell-based. The conditions noted are these: OE21, 72 h.
The next assay has as its system SK-MEL-28. As to the kind of experiment: Antiproliferative activity against apoptosis resistant human SK-MEL-28 cells after 72 hrs by MTT assay. The note with it: SK-MEL-28, 72 h. The assay is classed as functional, cell-based.
Assay [3] is described as follows: Antiproliferative activity against apoptosis sensitive human Hs683 cells after 72 hrs by MTT assay. The assay is classed as functional, cell-based. The note with it: Hs 683, 72 h.
The nature of assay [4]: Antiproliferative activity against apoptosis sensitive mouse B16F10 cells after 72 hrs by MTT assay. The assay is classed as functional, cell-based. The conditions noted are these: B16-F10, 72 h.
Assay [5] in a line: Antiproliferative activity against apoptosis sensitive human PC3 cells after 72 hrs by MTT assay. In kind it is functional, cell-based. The conditions noted are these: PC-3, 72 h.
For a further assay, the system named is MCF7. As to the kind of experiment: Antiproliferative activity against apoptosis sensitive human MCF7 cells after 72 hrs by MTT assay. The conditions noted are these: MCF7, 72 h. In kind it is functional, cell-based.

The IC50 is the concentration that inhibits the measured activity by half. High values mean a need for much substance, low ones inhibition by little substance. Regarding `O=C1Nc2c(Br)cccc2/C1=C1/Nc2ccccc2/C1=N\O`, the half-maximal inhibitory concentration (IC50) is 5.6 µM in the assay with LoVo; 6.6 µM in [1]; 13.9 µM in the assay on A549; 3.9 µM in assay [2]; 9.8 µM in the assay on SK-MEL-28; 8.1 µM in [3]. In addition, the IC50 was 5.3 µM in assay [4], 7.8 µM in assay [5] and 4.9 µM in the assay on MCF7.

Consider `O=C1NC(=S)S/C1=C1\C(=O)Nc2ccccc21`, for which the IC50 in the assay with LoVo worked out at 69.3 µM; in assay [1], 85.3 µM; with A549 it was 99 µM; in assay [2], 47.2 µM; in the assay with SK-MEL-28, 96.6 µM; in [3] it was 93.3 µM. For the same compound, the 50% inhibitory concentration (IC50) is 73.5 µM in [4], above 100 µM in assay [5] and above 100 µM in the assay with MCF7.

On to `O=C1NC(=O)/C(=C2/C(=O)Nc3ccccc32)S1`, for which the IC50 is 5.2 µM in the assay with LoVo; 86.4 µM in assay [1]; 60.7 µM in the assay with A549; 38 µM in assay [2]; above 100 µM in the assay on SK-MEL-28; 89.7 µM in assay [3]. Further, the IC50 in assay [4] is 2.8 µM; in assay [5], 67.5 µM; with MCF7, above 100 µM.

Turning to `O=C1Nc2ccc(Br)cc2/C1=C1/Nc2ccccc2C1=O`, the IC50 in the assay on LoVo was 12 µM; in assay [1], 8.6 µM; in the assay with A549 it was above 100 µM; in [2], 3.8 µM; in the assay with SK-MEL-28 it was above 100 µM; in assay [3], 14.1 µM. Also, the IC50 was 3.8 µM in assay [4], above 100 µM in [5] and 37.3 µM in the assay with MCF7.

Regarding `O=C1Nc2ccccc2/C1=C1/Nc2ccccc2/C1=N\O`, the IC50 was determined as 8.9 µM in the assay with LoVo; 18 µM in [1]; 27 µM in the assay on A549; 8.1 µM in [2]; 26.6 µM in the assay on SK-MEL-28; 6 µM in assay [3]. Moreover, the IC50 in assay [4] is 5.4 µM; in [5], 24.3 µM; in the assay on MCF7, 9.2 µM.

In the case of `O=C1Nc2c(Cl)cccc2/C1=C1/Nc2ccccc2C1=O`, the IC50 was above 100 µM with LoVo; above 100 µM in assay [1]; above 100 µM with A549; 35.3 µM in assay [2]; above 100 µM in the assay on SK-MEL-28; 55.2 µM in assay [3]. Also, the values for the IC50 (in assay [4]; in assay [5]; with MCF7) were 15.7 µM, above 100 µM and above 100 µM, respectively.

Turning to `O=C1Nc2c(F)cccc2/C1=C1/Nc2ccccc2C1=O`, the IC50 was 42 µM in the assay on LoVo; 45.8 µM in assay [1]; above 100 µM in the assay with A549; 29 µM in [2]; above 100 µM in the assay with SK-MEL-28; 38.7 µM in [3]. For the same compound, the IC50 in assay [4] is 16.3 µM; in [5], above 100 µM; in the assay with MCF7 it was 44.8 µM.

As to `O=C1Nc2c(Cl)cccc2/C1=C1/Nc2ccccc2/C1=N\O`, the IC50 amounted to 10.2 µM in the assay with LoVo; 31.5 µM in assay [1]; 45.2 µM in the assay with A549; 19.6 µM in assay [2]; 40.1 µM with SK-MEL-28; 25.3 µM in assay [3]. Also, the concentration for half-maximal inhibition (IC50) in [4] came out at 12.9 µM; in [5], 29.7 µM; with MCF7, 27.5 µM.

In the case of `O=C1Nc2c(F)cccc2/C1=C1/Nc2ccccc2/C1=N\O`, the IC50 amounted to 9 µM in the assay on LoVo; 19.7 µM in assay [1]; 33.3 µM in the assay with A549; 9.2 µM in [2]; 44.6 µM in the assay with SK-MEL-28; 9.3 µM in assay [3]. Moreover, the IC50 in assay [4] stood at 7.8 µM; in [5], 26 µM; with MCF7 it was 26.2 µM.

With `O=C1NC(=O)/C(=C2/C(=O)Nc3ccccc32)N1`, the IC50 is 76.1 µM in the assay on LoVo; above 100 µM in assay [1]; 66.5 µM with A549; 52.3 µM in [2]; above 100 µM in the assay with SK-MEL-28; 84.7 µM in [3]. For the same compound, the IC50 was determined as 73.3 µM in assay [4], 95.5 µM in assay [5] and 94.6 µM in the assay on MCF7.

`O=C1NC(=S)N/C1=C1\C(=O)Nc2c(Br)cccc21`: the IC50 with LoVo turned out to be 37 µM; in assay [1], 4.7 µM; in the assay with A549 it was 3.8 µM; in assay [2], 20.2 µM; in the assay on SK-MEL-28 it was 11.7 µM; in assay [3] it was 40.8 µM. The IC50 in assay [4] is 5 µM; in assay [5], 22.8 µM; with MCF7 it was 51 µM.

`O=C1Nc2ccccc2/C1=C1/Cc2ccccc2C1=O`: the IC50 with LoVo was 52.6 µM; in assay [1], above 100 µM; with A549, above 100 µM; in [2], 25.1 µM; in the assay with SK-MEL-28 it was above 100 µM; in [3] it was above 100 µM. The values for the IC50 (in assay [4]; in assay [5]; with MCF7) were above 100 µM, above 100 µM and 70.2 µM, respectively.

Consider `O=C1Nc2ccc(Br)cc2/C1=C1/Cc2ccccc2C1=O`, for which the IC50 in the assay with LoVo was 52.8 µM; in assay [1], 41.4 µM; with A549 it was above 100 µM; in [2], 56 µM; in the assay with SK-MEL-28, above 100 µM; in assay [3], 47.3 µM. Also, the values for the IC50 (in assay [4]; in assay [5]; in the assay with MCF7) were 69.1 µM, above 100 µM and 65.2 µM, respectively.

`O=C1NC(=S)S/C1=C1\C(=O)Nc2ccc(Br)cc21`: the IC50 in the assay on LoVo was found to be 52.1 µM; in assay [1] it was 41.7 µM; in the assay with A549 it was 36.2 µM; in [2], 62.5 µM; in the assay on SK-MEL-28, 53.5 µM; in [3], 93.6 µM. In addition, the IC50 was 0.1 µM in assay [4], 44.3 µM in [5] and 82.9 µM with MCF7.

In the case of `O=C1Nc2ccccc2/C1=C1/Cc2ccccc2/C1=N\O`, the IC50 stood at 18.7 µM in the assay on LoVo; 28 µM in assay [1]; 28.7 µM in the assay with A549; 27.8 µM in assay [2]; 33.7 µM with SK-MEL-28; 22.9 µM in assay [3]. The IC50 in assay [4] amounted to 32.6 µM; in [5] it was 33.1 µM; with MCF7 it was 38.5 µM.

Regarding `O=C1NC(=S)N/C1=C1\C(=O)Nc2ccccc21`, the IC50 in the assay on LoVo is 60.2 µM; in [1] it was 51.9 µM; in the assay with A549, 45.8 µM; in [2], 38.7 µM; with SK-MEL-28, 62.9 µM; in [3], 52.9 µM. Besides, the IC50 stood at 41.6 µM in assay [4], 75.5 µM in [5] and 87.8 µM with MCF7.

Consider `O=C1Nc2ccccc2/C1=C1/Oc2ccccc2C1=O`, for which the IC50 came to 4.1 µM in the assay on LoVo; 27.7 µM in [1]; 23.3 µM in the assay with A549; 25.9 µM in [2]; 23.8 µM in the assay on SK-MEL-28; 25.7 µM in [3]. In addition, the results for the concentration for half-maximal inhibition (IC50) (in assay [4]; in assay [5]; with MCF7) were below 0.01 µM, 36.1 µM and 0.3 µM, respectively.

Turning to `O=C1Nc2c(Br)cccc2/C1=C1/Nc2ccccc2C1=O`, the IC50 was 32.3 µM with LoVo; 8.1 µM in [1]; above 100 µM in the assay on A549; 8.7 µM in assay [2]; above 100 µM in the assay on SK-MEL-28; 6.9 µM in assay [3]. Further, the results for the IC50 (in assay [4]; in [5]; in the assay on MCF7) were 3.2 µM, above 100 µM and 52.8 µM, respectively.

For `O=C1Nc2ccc(Br)cc2/C1=C1/Nc2ccccc2/C1=N\O` [INDIRUBIN 2], the IC50 in the assay on LoVo amounted to 6.6 µM; in assay [1], 8 µM; in the assay with A549, 7.2 µM; in [2], 3.6 µM; with SK-MEL-28 it was 17.3 µM; in assay [3] it was 8.4 µM. Further, the 50% inhibitory concentration (IC50) in assay [4] was found to be 0.5 µM; in assay [5], 6.8 µM; in the assay with MCF7, 5.8 µM.

With `O=C1Nc2ccccc2/C1=C1/Nc2ccccc2C1=O` [INDIRUBIN], the IC50 is above 100 µM in the assay on LoVo; above 100 µM in assay [1]; above 100 µM in the assay with A549; 30.5 µM in assay [2]; above 100 µM in the assay with SK-MEL-28; above 100 µM in assay [3]. The figures for the IC50 (in assay [4]; in assay [5]; in the assay with MCF7) were 0.2 µM, above 100 µM and above 100 µM, respectively.

For `CC1(C)CCC2=C(O1)c1ccccc1C(=O)C2=O` [LAPACHONE], the IC50 in the assay with LoVo was found to be 0.3 µM; in [1], 0.4 µM; with A549, 0.8 µM; in assay [2], 0.6 µM; with SK-MEL-28, 0.6 µM; in assay [3] it was 0.4 µM. The IC50 is 0.3 µM in [4], below 0.01 µM in [5] and 0.5 µM in the assay with MCF7.
